The record followed here is publication PMC6691772, “Novel phthalimide based analogues: design, synthesis, biological evaluation, and molecular docking studies” (Journal of Enzyme Inhibition and Medicinal Chemistry, 2019).

Each structure is given as a SMILES string. Values after ≈ are worked out from the molar mass of the structure shown.

One may read the IC50 as the midpoint of a concentration-inhibition curve. The melting point is the temperature of the solid-liquid transition. The zone of inhibition is the size of the clear area around the sample on an inoculated plate. In general, MIC refers to the lowest concentration that inhibits growth of the organism.

Data set [1] concerns S. pneumonia RCMB 010010. In words: Agar well diffusion, inhibition zone. Type of data set: cell-based, Streptococcus pneumoniae. Further details: key to Mean diameter of inhibition zone (Mean ± SEM): –: -: No activity under the screening conditions. The note with it: mean of three values; for Mean diameter of inhibition zone (Mean ± SEM): 1 mg/mL. For orientation: A growth-free zone around the sample is the usual read-out of agar diffusion tests.

Data set [2] has as its system B. subtilis RCMB 010067. In words: Agar well diffusion, inhibition zone. Conditions: mean of three values; for Mean diameter of inhibition zone (Mean ± SEM): 1 mg/mL. Further details: key to Mean diameter of inhibition zone (Mean ± SEM): –: -: No activity under the screening conditions. Type of data set: cell-based, Bacillus subtilis.
Data set [3] deals with P. aeruginosa RCMB 010043. In words: Agar well diffusion, inhibition zone. Type of data set: cell-based, Pseudomonas aeruginosa. Conditions: mean of three values; for Mean diameter of inhibition zone (Mean ± SEM): 1 mg/mL. Further details: key to Mean diameter of inhibition zone (Mean ± SEM): –: -: No activity under the screening conditions.
The test system of data set [4] is E. coli RCMB 010052. In words: Agar well diffusion, inhibition zone. Type of data set: cell-based, Escherichia coli. Further details: key to Mean diameter of inhibition zone (Mean ± SEM): –: -: No activity under the screening conditions. The note with it: mean of three values; for Mean diameter of inhibition zone (Mean ± SEM): 1 mg/mL.
Data set [5] has as its system A. fumigatus RCMB 002568. As to the kind of experiment: Agar well diffusion, inhibition zone. Further details: key to Mean diameter of inhibition zone (Mean ± SEM): –: -: No activity under the screening conditions. The note with it: mean of three values; for Mean diameter of inhibition zone (Mean ± SEM): 1 mg/mL. Type of data set: cell-based, Aspergillus fumigatus.
Data set [6] has as its system C. albicans RCMB 005036. In words: Agar well diffusion, inhibition zone. Type of data set: cell-based, Candida albicans. Further details: key: –: -: No activity under the screening conditions. The note with it: 1 mg/mL, mean of three values.
Data set [7] deals with human liver cancer cell line (HepG-2). In words: MTT anticancer assay. Conditions: HepG2, HePG-2 cancer liver cell line, mean of three values, read-out: IC50 (Mean ± SEM). Type of data set: cell-based. Background: Tetrazolium dyes change colour on reduction, which living cells bring about.
The test system of data set [8] is (THLE-2) normal liver cell line. In words: Cytotoxic screening on normal liver cells. Type of data set: cell-based. The note with it: Homo sapiens, mean of three values, read-out: IC50 (Mean ± SEM).
Data set [9] concerns tested bacterial and fungal strains. As to the kind of experiment: Antimicrobial screening, summary over all tested strains. Type of data set: cell-based. Conditions: 1 mg/mL. The source says:
All bacterial and fungal strains were received from the culture collection of the Regional Center for Mycology and Biotechnology (RCMB), Al-Azhar University, Cairo, Egypt. All target derivatives were screened in-vitro opposite to various kinds of bacteria, Gram-positive bacteria (Streptococcus pneumoniae and Bacillus subtilis) and Gram-negative bacteria (Pseudomonas aeruginosa and Escherichia coli) and for their Antifungal activities against Aspergillus fumigatus and Candida albicans, respectively. Ampicillin and gentamycin were used as standard antibacterial drugs while amphotericin B was used as reference antifungal drug. The diameter of inhibition zone (mm) was measured for the biological activity using the diffusion technique. The promising compounds were further investigated to evaluate their antimicrobial activity expressed in terms of minimum inhibitory concentration (MIC) using the modified agar well diffusion method.
The newly prepared targets were subjected for in-vitro antibacterial screening against Gram-positive bacteria (Streptococcus pneumonia and Bacillus subtilis) and Gram-negative bacteria (Pseudomonas aeruginosa and Escherichia coli). […] The compounds’ solutions of concentrations (1 mg/mL) were evaluated against the different microorganism’s and the inhibition zone (IZ) used diameter in mm for the biologically activity (agar well diffusion method).

The subject of data set [10] is S. pneumonia RCMB 010010. In words: Minimum inhibitory concentration, modified agar well diffusion. The note with it: Streptococcus pneumoniae, RCMB010010, mean of three values, read-out: MIC (Mean ± SEM). Type of data set: cell-based.
The subject of data set [11] is B. subtilis RCMB 010067. The description is as above. Type of data set: cell-based. Conditions: Bacillus subtilis, RCMB010067, mean of three values, read-out: MIC (Mean ± SEM).
In data set [12] the test system is P. aeruginosa RCMB 010043. The description is as above. Type of data set: cell-based. The note with it: Pseudomonas aeruginosa, RCMB010043, mean of three values, read-out: MIC (Mean ± SEM).
The test system of data set [13] is E. coli RCMB 010052. The description is as above. Type of data set: cell-based. Conditions: Escherichia coli, RCMB010052, mean of three values, read-out: MIC (Mean ± SEM).
For data set [14], the system named is A. fumigatus RCMB 002568. The description is as above. Type of data set: cell-based. Conditions: Aspergillus fumigatus, RCMB002568, mean of three values, read-out: MIC (Mean ± SEM).
Data set [15] deals with E. coli DNA gyrase B (Escherichia coli, UniProt P0AES6). In words: In-vitro enzyme assay on DNA gyrase B. Type of data set: biochemical.
Data set [16] deals with VEGFR-2 (Homo sapiens, UniProt P35968). In words: In-vitro enzyme assay on VEGFR-2. Type of data set: biochemical. The note with it: read-out: IC50 (Mean ± SEM).
Sequence of VEGFR-2 (P35968 20-1356): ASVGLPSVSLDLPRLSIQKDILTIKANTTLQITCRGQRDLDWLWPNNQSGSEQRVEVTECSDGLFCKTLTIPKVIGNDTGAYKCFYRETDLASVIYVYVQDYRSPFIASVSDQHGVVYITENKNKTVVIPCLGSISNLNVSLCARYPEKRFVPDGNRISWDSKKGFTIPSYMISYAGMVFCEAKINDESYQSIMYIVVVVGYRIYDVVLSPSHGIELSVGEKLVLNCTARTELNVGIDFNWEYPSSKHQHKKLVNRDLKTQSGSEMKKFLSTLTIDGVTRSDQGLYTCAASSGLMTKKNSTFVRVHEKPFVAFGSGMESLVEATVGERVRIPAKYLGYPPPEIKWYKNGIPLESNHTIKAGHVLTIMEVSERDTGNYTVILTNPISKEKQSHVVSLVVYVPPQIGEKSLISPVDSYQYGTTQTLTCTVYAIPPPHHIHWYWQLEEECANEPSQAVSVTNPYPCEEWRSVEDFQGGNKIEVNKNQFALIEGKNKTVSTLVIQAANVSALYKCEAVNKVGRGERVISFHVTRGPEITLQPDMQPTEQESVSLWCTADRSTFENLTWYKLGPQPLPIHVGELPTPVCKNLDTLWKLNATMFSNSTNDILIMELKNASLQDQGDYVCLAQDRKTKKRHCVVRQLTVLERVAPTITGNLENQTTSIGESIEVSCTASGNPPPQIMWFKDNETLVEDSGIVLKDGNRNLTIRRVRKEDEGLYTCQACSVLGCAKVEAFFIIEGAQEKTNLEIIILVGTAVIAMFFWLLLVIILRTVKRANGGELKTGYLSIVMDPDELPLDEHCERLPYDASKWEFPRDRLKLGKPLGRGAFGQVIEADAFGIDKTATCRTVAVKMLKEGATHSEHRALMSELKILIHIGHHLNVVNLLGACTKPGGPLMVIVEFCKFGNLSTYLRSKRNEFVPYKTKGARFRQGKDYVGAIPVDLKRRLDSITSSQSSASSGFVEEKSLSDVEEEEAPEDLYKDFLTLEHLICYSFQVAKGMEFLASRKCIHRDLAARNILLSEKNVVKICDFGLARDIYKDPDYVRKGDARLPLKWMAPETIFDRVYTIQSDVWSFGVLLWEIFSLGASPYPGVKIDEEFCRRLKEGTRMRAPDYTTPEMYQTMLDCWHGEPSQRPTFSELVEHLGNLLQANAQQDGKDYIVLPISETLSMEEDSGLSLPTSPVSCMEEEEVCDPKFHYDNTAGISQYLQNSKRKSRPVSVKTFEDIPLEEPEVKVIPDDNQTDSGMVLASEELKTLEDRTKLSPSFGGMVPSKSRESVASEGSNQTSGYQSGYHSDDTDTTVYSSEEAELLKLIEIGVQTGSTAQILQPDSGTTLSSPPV

In turn, `O=C1Cn2nc(O)c(N=NN3C(=O)c4ccccc4C3=O)c2N1` [Compound 5, 2-((6-Hydroxy-2-oxo-2,3-dihydro-1H-imidazo[1,2-b]pyrazol-7-yl)diazenyl)-isoindoline-1,3-dione] registered a melting point of 157 to 158 °C. For the same molecule, in data set [1], the “Mean diameter of inhibition zone (Mean ± SEM)” value is “–”. Moreover, in data set [2], the “Mean diameter of inhibition zone (Mean ± SEM)” value is “–”. Moreover, the “Mean diameter of inhibition zone (Mean ± SEM)” value in data set [3] is “–”. For the same molecule, the “Mean diameter of inhibition zone (Mean ± SEM)” value in data set [4] is given as “–”. Besides, the “Mean diameter of inhibition zone (Mean ± SEM)” value in data set [5] is recorded as “–”. For the same molecule, in data set [6], the “Mean diameter of inhibition zone (Mean ± SEM)” value was “–”. For the same molecule, in data set [7], the IC50 stood at 31.8 ± 1.56 µg/mL (≈ 102 µM). Moreover, the IC50 in [8] was 597.83 ± 0.14 µg/mL (≈ 1910 µM). For the same molecule, the “antimicrobial activity, overall” value in data set [9] was “no antimicrobial activities”.

Take `Nc1c(C(=O)c2ccccc2)cnc2c(N=NN3C(=O)c4ccccc4C3=O)c(O)nn12` [Compound 14, 2-[(7-Amino-6-benzoyl-2-hydroxypyrazolo[1,5-a]pyrimidin-3-yl)diazenyl]-1H-isoindole-1,3(2H)-dione]: the melting point lay within 295 to 297 °C. In data set [1], the “Mean diameter of inhibition zone (Mean ± SEM)” value is “–”. The “Mean diameter of inhibition zone (Mean ± SEM)” value in [2] is “–”. For the same molecule, the “Mean diameter of inhibition zone (Mean ± SEM)” value in [3] is listed as “–”. Moreover, the “Mean diameter of inhibition zone (Mean ± SEM)” value in [4] is recorded as “–”. Further, in data set [5], the “Mean diameter of inhibition zone (Mean ± SEM)” value was “–”. Moreover, the “Mean diameter of inhibition zone (Mean ± SEM)” value in data set [6] is on record as “–”. Besides, the IC50 in data set [7] was 34.8 ± 1.26 µg/mL (≈ 81.4 µM). Further, the IC50 in [8] turned out to be 725.44 ± 0.15 µg/mL (≈ 1700 µM). The “antimicrobial activity, overall” value in data set [9] is recorded as “no antimicrobial activities”.

Molecule `NC1=NNC(=O)C1=NNN1C(=O)c2ccccc2C1=O` [Compound 4, 2-(2-(3-Amino-5-oxo-1H-pyrazol-4(5H)-ylidene)hydrazinyl)isoindoline-1,3-dione] yielded a melting point of 289 to 290 °C. Also, the zone of inhibition at 1000 µg/mL in data set [1] (Streptococcus pneumoniae, RCMB010010, 1 mg/mL, read-out: Mean diameter of inhibition zone (Mean ± SEM)) was 23 ± 0.4 mm. For the same molecule, in [2] (Bacillus subtilis, RCMB010067, 1 mg/mL, read-out: Mean diameter of inhibition zone (Mean ± SEM)), the zone of inhibition at 1000 µg/mL turned out to be 25.1 ± 0.5 mm. The zone of inhibition at 1000 µg/mL in data set [3] (Pseudomonas aeruginosa, RCMB010043, 1 mg/mL, read-out: Mean diameter of inhibition zone (Mean ± SEM)) came to 19.2 ± 0.5 mm. The zone of inhibition at 1000 µg/mL in data set [4] (Escherichia coli, RCMB010052, 1 mg/mL, read-out: Mean diameter of inhibition zone (Mean ± SEM)) came out at 24.5 ± 0.3 mm. Besides, the zone of inhibition at 1000 µg/mL in data set [5] (Aspergillus fumigatus, RCMB002568, 1 mg/mL, read-out: Mean diameter of inhibition zone (Mean ± SEM)) was 23.1 ± 0.5 mm. Further, in data set [6], the “Mean diameter of inhibition zone (Mean ± SEM)” value is on record as “–”. The MIC in data set [10] worked out at 1.95 ± 0.23 µg/mL (≈ 7.16 µM). Further, in [11], the MIC is 0.98 ± 0.42 µg/mL (≈ 3.6 µM). Besides, in data set [12], the MIC is 0.98 ± 0.02 µg/mL (≈ 3.6 µM). Moreover, the MIC in data set [13] was found to be 0.49 ± 0.39 µg/mL (≈ 1.8 µM). For the same molecule, in [14], the MIC was 1.95 ± 0.28 µg/mL (≈ 7.16 µM). In addition, the IC50 in data set [7] was determined as 4.22 ± 1.04 µg/mL (≈ 15.5 µM). For the same molecule, the 50% inhibitory concentration (IC50) in [8] worked out at 874.31 ± 0.22 µg/mL (≈ 3210 µM). Besides, the IC50 in data set [15] turned out to be 340 ± 630 nM. In addition, the IC50 in data set [16] turned out to be 90 nM.
